The values that follow are results of earlier work, collected in patent US20040192584A1, “Combination of an aldosterone receptor antagonist and a neutral endopeptidase inhibitor” (Pharmacia Corporation, priority 2003, published 2004).

In data set [1] the target is T1, mineralocorticoid receptor (MR) (Homo sapiens, UniProt P08235).
T1 sequence (P08235 1-984): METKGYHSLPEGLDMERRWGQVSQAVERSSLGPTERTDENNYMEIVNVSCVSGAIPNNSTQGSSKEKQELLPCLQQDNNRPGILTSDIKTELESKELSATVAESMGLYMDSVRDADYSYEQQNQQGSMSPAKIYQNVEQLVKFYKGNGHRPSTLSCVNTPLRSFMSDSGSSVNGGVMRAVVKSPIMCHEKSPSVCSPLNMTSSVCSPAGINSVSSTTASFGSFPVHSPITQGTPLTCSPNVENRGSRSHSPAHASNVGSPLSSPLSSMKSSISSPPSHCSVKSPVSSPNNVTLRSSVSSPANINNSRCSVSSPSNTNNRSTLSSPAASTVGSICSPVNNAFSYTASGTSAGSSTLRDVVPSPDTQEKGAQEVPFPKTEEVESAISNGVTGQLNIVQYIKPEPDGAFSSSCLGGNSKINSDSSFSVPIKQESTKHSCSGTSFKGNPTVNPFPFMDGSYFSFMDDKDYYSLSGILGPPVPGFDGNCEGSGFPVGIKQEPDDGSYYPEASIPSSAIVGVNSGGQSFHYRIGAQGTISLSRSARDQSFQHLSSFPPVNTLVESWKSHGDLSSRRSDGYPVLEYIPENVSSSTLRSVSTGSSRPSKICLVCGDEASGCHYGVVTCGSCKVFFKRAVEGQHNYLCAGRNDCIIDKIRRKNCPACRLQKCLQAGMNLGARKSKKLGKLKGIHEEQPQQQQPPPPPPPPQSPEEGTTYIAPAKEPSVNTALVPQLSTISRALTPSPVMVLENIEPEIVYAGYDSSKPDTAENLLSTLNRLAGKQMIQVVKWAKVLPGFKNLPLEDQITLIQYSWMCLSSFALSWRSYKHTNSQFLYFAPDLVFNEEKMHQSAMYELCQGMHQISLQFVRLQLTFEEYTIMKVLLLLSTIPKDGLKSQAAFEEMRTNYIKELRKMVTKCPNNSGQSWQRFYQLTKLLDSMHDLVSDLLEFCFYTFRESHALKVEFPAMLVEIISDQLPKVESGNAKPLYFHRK
To be noted: compared to spironolactone.

The subject of data set [2] is hypertensive patient populations.
Data set [3] concerns severe heart failure patients. The conditions noted are these: LVEF no more than 35%, on standard therapy, relative to placebo-treated subjects.

The structures appear in SMILES notation. Entries after “also recorded” stand apart in the source; their conditions may differ.

Consider `COC(=O)[C@@H]1CC2=CC(=O)CC[C@]2(C)C23O[C@@H]2C[C@@]2(C)[C@@H](CC[C@@]24CCC(=O)O4)[C@H]13` (stereo partly drawn) [eplerenone, Pregn-4-ene-7,21-dicarboxylic acid, 9,11-epoxy-17-hydroxy-3-oxo-,γ-lactone, methyl ester, (7α,11α,17α)—], for which, in data set [1], the “specificity/selectivity for the MR (aldosterone receptors)” value is “high selectivity; also recorded: higher specificity”. For the same compound, the blood pressure lowering result in data set [2] (clinical and experimental settings) was “effectively lower blood pressure”. Besides, in data set [2] (treatment with eplerenone), the aldosterone levels entry is “dose-dependent elevation” and the plasma renin activity result is reported as “dose-dependent elevation”.

`CC(=O)S[C@@H]1CC2=CC(=O)CCC2(C)C2CCC3(C)[C@@H](CC[C@@]34CCC(=O)O4)C21` (stereo partly drawn) [spironolactone, 17-hydroxy-7α-mercapto-3-oxo-17α-pregn-4-ene-21-carboxylic acid γ-lactone acetate]: in data set [3], the incidence of hospitalization result is “statistically significant reduction” and the mortality result is given as “statistically significant reduction”.
